Assays:
[1] = biological target: T1, mycobacterial protein kinase G (PknG) (Mycobacterium tuberculosis, UniProt P9WI73); assay: biochemical; conditions: read-out: Inhibition of PknG (IC50, [μM])
T1 construct: GST; made in house; host or cells: E. coli BL21

SRPK1 GST = biological target: T2, SRPK1 GST (Homo sapiens, UniProt Q96SB4); assay: General kinase assay: SRPK1; type: biochemical; conditions: concentration 10 μM; read-out: Inhibitory effect on Target SRPK1 GST
T2 construct: GST
Method: (§1) General Assay Protocol for all Kinases [[[…]]] [[[…]]] Reaction Buffer: Final Assay Concentrations: [[[…]]] Pipetting Sequence: • 1) Add 8 μl 50 μM MBP in Reaction Buffer to each well of Assay Plate • 2) Add 10 μl 500 mM EDTA in H2O to C- wells • 3) Add 8 μl 62.5 μCi/ml Adenosine 5'-[γ-^33P]triphosphate+5 μM ATP in Reaction Buffer to each well • 4) Add 8 μl 5 fold concentrated inhibitor in 5% DMSO in Reaction Buffer to each well except to C- and C+ wells • 5) Add 8 μl 5% DMSO in Reaction Buffer to C- and C+ wells • 6) Add 8 μl 5 fold concentrated kinase in Reaction Buffer to each well • 7) Incubate 1 hr at room temperature • 8) Add 10 μl 50 mM EDTA in H2O to each well except to C- wells • 9) Prepare MAPH plates by adding 200 μl 0.75% H3PO4 to each well • 10) Exhaust 0.75% H3PO4 using Millipore vacuum station • 11) Add 60 μl 0.75% H3PO4 to each well of MAPH Filter Plate • 12) Transfer 30 μl sample per well from Assay Plate to corresponding well of MAPH Filter Plate • 13) Incubate 30 min at room temperature • 14) Wash each well of MAPH Filter Plates 3× with 200 μl 0.75% H3PO4 using Millipore vacuum station • 15) Add 20 μl Szintilation Liquid to each well of MAPH Filter Plate • 16) Seal MAPH Filter Plate • 17) Store MAPH Filter Plate 30 min in darkness • 18) Quantify radioactivity

CK1-alpha GST = biological target: T3, CK1-alpha GST (Homo sapiens, UniProt P48729); assay: General kinase assay: CK1-alpha; type: biochemical; conditions: concentration 10 μM; read-out: Inhibitory effect on Target CK1-alpha GST
T3 construct: GST
T3 sequence (P48729 whole entry): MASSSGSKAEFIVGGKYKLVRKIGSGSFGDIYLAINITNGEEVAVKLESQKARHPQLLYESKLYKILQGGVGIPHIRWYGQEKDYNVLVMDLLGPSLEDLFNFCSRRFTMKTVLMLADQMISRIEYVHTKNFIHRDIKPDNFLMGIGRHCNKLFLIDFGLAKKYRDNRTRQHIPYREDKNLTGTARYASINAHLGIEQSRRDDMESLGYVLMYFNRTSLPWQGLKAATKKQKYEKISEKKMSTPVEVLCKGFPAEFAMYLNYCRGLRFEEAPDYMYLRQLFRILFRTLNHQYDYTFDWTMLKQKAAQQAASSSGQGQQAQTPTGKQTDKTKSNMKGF
Method: as §1

RICK-STREP 1 = biological target: T4, RICK-STREP 1 (Homo sapiens, UniProt O43353); assay: General kinase assay: RICK; type: biochemical; conditions: concentration 10 μM; read-out: Inhibitory effect on Target RICK-STREP 1
T4 construct: Strep
T4 sequence (O43353 whole entry): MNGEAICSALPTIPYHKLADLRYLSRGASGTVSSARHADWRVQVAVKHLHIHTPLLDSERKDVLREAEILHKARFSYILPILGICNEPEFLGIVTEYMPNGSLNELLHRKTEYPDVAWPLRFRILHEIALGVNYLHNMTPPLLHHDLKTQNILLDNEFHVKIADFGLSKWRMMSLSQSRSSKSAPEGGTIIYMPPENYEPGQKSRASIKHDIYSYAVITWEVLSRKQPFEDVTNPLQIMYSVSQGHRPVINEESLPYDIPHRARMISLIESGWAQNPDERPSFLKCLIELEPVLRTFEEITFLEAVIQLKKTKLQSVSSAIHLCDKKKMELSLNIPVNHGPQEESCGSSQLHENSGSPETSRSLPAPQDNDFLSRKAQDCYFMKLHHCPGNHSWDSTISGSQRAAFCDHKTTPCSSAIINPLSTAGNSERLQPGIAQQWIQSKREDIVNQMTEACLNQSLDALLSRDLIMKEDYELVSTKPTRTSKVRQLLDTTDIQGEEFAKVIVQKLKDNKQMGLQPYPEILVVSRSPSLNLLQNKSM
Method: as §1

GSK-3beta HIS = biological target: T5, GSK-3beta HIS (Homo sapiens, UniProt P49841); assay: General kinase assay: GSK-3beta; type: biochemical; conditions: concentration 10 μM; read-out: Inhibitory effect on Target GSK-3beta HIS
T5 construct: His
T5 sequence (P49841 whole entry): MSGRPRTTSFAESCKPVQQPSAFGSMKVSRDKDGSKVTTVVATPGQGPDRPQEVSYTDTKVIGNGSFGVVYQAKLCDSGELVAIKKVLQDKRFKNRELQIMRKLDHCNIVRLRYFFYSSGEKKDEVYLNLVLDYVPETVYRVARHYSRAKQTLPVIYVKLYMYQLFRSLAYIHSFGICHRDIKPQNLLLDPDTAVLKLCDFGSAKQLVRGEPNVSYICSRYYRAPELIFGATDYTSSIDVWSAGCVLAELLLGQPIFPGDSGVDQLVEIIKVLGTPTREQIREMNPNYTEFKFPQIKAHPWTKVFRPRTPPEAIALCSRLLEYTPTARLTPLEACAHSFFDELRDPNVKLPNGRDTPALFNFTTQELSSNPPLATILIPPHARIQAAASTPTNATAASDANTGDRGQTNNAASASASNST
Method: as §1

CDK2/CycA = CDK2/CycA (Homo sapiens, UniProt P24941); assay: General kinase assay: CDK2/CycA; type: biochemical; conditions: concentration 10 μM; read-out: Inhibitory effect on Target CDK2/CycA
Method: as §1

PDGFRbeta GST = biological target: T6, PDGFRbeta GST (Homo sapiens, UniProt P09619); assay: General kinase assay: PDGFRbeta; type: biochemical; conditions: concentration 10 μM; read-out: Inhibitory effect on Target PDGFRbeta GST
T6 construct: GST
T6 sequence (P09619 33-1106): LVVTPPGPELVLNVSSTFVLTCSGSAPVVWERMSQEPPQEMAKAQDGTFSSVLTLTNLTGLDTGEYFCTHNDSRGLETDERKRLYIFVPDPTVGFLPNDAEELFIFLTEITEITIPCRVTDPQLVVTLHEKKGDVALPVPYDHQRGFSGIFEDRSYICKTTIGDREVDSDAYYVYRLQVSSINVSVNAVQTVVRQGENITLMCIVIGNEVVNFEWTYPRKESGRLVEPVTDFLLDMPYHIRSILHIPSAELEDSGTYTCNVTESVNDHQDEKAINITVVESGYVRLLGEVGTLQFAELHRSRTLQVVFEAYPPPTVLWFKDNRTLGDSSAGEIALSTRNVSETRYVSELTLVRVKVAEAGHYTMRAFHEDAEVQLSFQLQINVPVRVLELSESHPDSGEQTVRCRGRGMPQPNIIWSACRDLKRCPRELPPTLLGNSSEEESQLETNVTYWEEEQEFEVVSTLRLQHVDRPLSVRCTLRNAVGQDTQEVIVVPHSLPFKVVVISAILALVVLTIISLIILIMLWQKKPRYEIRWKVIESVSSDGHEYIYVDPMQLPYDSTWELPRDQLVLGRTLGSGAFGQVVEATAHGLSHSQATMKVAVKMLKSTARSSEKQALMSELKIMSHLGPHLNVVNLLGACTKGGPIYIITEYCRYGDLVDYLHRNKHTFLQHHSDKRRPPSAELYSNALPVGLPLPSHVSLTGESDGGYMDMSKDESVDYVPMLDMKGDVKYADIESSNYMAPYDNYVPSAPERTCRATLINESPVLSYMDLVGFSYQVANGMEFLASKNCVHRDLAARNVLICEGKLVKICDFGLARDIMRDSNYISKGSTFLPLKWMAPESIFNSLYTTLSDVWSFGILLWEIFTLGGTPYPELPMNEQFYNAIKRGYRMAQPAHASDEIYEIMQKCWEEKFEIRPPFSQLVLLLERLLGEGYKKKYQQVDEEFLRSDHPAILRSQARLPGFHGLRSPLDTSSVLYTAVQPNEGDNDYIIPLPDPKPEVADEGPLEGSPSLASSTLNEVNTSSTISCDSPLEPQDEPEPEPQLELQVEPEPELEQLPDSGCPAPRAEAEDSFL
Method: as §1

T1 sequence (P9WI73 whole entry): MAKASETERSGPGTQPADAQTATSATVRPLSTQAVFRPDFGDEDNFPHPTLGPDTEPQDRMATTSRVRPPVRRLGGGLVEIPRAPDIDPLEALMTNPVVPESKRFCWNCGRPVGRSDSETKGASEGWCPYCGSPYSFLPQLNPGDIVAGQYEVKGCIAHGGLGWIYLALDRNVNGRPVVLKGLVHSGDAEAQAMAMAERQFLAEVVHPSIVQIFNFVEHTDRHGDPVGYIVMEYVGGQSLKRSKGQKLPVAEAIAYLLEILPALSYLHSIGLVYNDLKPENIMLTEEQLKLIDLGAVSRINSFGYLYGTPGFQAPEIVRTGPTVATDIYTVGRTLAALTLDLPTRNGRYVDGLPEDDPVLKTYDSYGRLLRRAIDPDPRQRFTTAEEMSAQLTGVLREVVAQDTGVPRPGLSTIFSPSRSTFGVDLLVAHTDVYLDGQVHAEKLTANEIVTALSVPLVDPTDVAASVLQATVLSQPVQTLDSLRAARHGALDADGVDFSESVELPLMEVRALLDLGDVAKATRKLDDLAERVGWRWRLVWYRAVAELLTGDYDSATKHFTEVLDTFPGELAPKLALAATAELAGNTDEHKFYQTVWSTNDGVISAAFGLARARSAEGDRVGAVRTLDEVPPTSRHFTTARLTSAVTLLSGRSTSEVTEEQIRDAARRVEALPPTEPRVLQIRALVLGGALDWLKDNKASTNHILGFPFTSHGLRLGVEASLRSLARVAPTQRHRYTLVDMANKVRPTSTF
T2 sequence (Q96SB4 whole entry): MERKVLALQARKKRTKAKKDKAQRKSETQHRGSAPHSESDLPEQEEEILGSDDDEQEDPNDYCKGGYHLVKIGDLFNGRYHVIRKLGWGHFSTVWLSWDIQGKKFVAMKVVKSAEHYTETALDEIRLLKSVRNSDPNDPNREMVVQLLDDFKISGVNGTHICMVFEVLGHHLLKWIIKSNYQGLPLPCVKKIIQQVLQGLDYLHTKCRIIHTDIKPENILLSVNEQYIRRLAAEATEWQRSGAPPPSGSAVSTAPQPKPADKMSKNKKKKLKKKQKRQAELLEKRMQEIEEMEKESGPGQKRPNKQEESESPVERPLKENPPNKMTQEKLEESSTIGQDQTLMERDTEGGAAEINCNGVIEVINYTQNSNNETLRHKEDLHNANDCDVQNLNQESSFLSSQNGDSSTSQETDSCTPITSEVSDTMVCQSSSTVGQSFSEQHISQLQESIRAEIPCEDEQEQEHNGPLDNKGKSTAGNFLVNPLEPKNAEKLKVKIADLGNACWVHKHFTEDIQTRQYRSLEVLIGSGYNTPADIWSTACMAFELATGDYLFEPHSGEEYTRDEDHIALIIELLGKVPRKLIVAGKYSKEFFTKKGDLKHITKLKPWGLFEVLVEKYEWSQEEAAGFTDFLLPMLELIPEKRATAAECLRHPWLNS

Structure (SMILES) | IC50 [1] [µM] | further results
COc1ccc(NC(=O)Nc2sc3c(c2C(N)=O)CCC(=O)C3)cc1 [Compound D106, 2-[3-(4-Methoxy-phenyl)-ureido]-6-oxo-4,5,6,7-tetrahydro-benzo[b]thiophene-3-carboxylic acid amide] | 0.1 to 1 | 
NC(=O)c1c(NC(=O)C2CC2)sc2c(Br)c(O)c(Br)cc12 [Compound A38, 5,7-Dibromo-2-(cyclopropanecarbonyl-amino)-6-hydroxy-benzo[b]thiophene-3-carboxylic acid amide] | < 0.1 | 
NC(=O)c1c(NC(=O)C2CCC2)sc2c1CCOC2 [Compound B15, 2-(Cyclobutanecarbonyl-amino)-4,7-dihydro-5H-thieno[2,3-c]pyran-3-carboxylic acid amide] | 1.1 to 10 | 
NC(=O)c1c(NC(=O)C2CC2)sc2c1CCC/C2=N\OCc1ccccc1 [Compound D72, E-7-Benzyloxyimino-2-(cyclopropanecarbonyl-amino)-4,5,6,7-tetrahydro-benzo[b]thiophene-3-carboxylic acid amide] | < 0.1 | 
CC=CC(=O)Nc1sc2c(c1C(N)=O)CCOC2 [Compound B16, 2-But-2-enoylamino-4,7-dihydro-5H-thieno[2,3-c]pyran-3-carboxylic acid amide] | 1.1 to 10 | 
Cc1ccccc1CNC(=O)Nc1sc2c(c1C(N)=O)CCSC2 [Compound C33, 2-[3-(2-Methyl-benzyl)-ureido]-4,7-dihydro-5H-thieno[2,3-c]thiopyran-3-carboxylic acid amide] | > 10 | 
NC(=O)c1c(NC(=O)Nc2ccncc2)sc2c1CCOC2 [Compound B73, 2-(3-Pyridin-4-yl-ureido]-4,7-dihydro-5H-thieno[2,3-c]pyran-3-carboxylic acid amide] |  | inhibition at 10 µM (SRPK1 GST): > 50%; inhibition at 10 µM (CK1-alpha GST): > 50%; inhibition at 10 µM (RICK-STREP 1): > 50%
NC(=O)c1c(NC(=O)C2CC2)sc2c1CCC(=NO)C2 [Compound D134, 2-(Cyclopropanecarbonyl-amino)-6-hydroxyimino-4,5,6,7-tetrahydro-benzo[b]thiophene-3-carboxylic acid amide] |  | inhibition at 10 µM (GSK-3beta HIS): > 50%; inhibition at 10 µM (CK1-alpha GST): > 50%; inhibition at 10 µM (RICK-STREP 1): > 50%
NC(=O)c1c(NC(=O)C2CC2)sc2cc(OCCO)ccc12 [Compound A20, 2-(Cyclopropanecarbonyl-amino)-6-(2-hydroxy-ethoxy)-benzo[b]thiophene-3-carboxylic acid amide] | 0.1 to 1 | 
NC(=O)c1c(NC(=O)NCCc2cccs2)sc2c1CCOC2 [Compound B75, 2-[3-(2-Thiophen-2-yl-ethyl)-ureido]-4,7-dihydro-5H-thieno[2,3-c]pyran-3-carboxylic acid amide] | 0.1 to 1 | 
CC(C)=CC(=O)Nc1sc2c(c1C(N)=O)CCOC2 [Compound B17, 2-(3-Methyl-but-2-enoylamino)-4,7-dihydro-5H-thieno[2,3-c]pyran-3-carboxylic acid amide] | 1.1 to 10 | 
NC(=O)c1c(NC(=O)C2CCC2)sc2c1CCCC2 [Compound D9, 2-(Cyclobutanecarbonylamino)-4,5,6,7-tetrahydro-benzo[b]thiophene-3-carboxylic acid amide] | 1.1 to 10 | 
NC(=O)c1c(NC(=O)Nc2ccc(F)cc2)sc2c1CCSC2 [Compound C45, 2-[3-(4-Fluoro-phenyl)-ureido]-4,7-dihydro-5H-thieno[2,3-c]thiopyran-3-carboxylic acid amide] | 0.1 to 1 | inhibition at 10 µM (SRPK1 GST): > 50%; inhibition at 10 µM (CDK2/CycA): > 50%; inhibition at 10 µM (PDGFRbeta GST): > 50%; inhibition at 10 µM (GSK-3beta HIS): > 50%; inhibition at 10 µM (RICK-STREP 1): > 50%
CC(C)(C)C(=O)Nc1sc2c(c1C(N)=O)CCOC2 [Compound B18, 2-(2,2-Dimethyl-propionylamino)-4,7-dihydro-5H-thieno[2,3-c]pyran-3-carboxylic acid amide] | > 10 | 
CC1OCc2sc(NC(=O)C3CC3)c(C(N)=O)c21 (stereo not drawn) [Compound D96, 2-(Cyclopropanecarbonyl-amino)-4-methyl-4,6-dihydro-thieno[2,3-c]furan-3-carboxylic acid amide] | 1.1 to 10 | 
C=CCNC(=S)Nc1sc2c(c1C(N)=O)CCCC2 [Compound D32, 2-(3-Allyl-thioureido)-4,5,6,7-tetrahydro-benzo[b]thiophene-3-carboxylic acid amide] | 1.1 to 10 | 
NC(=O)c1c(NC(=O)Nc2ccc(I)cc2)sc2c1CCC1(C2)OCCO1 [Compound D175, 2-({[(4-Iodophenyl)amino]carbonyl}amino)-4,7-dihydro-5H-spiro[1-benzothiophene-6,2′-[1,3]dioxolane]-3-carboxamide] | 0.1 to 1 | 
CCOC(=O)N1CCC(NC(=O)Nc2sc3c(c2C(N)=O)CCOC3)CC1 [Compound B181, 4-[3-(3-Carbamoyl-4,7-dihydro-5H-thieno[2,3-c]pyran-2-yl)-ureido]-piperidine-1-carboxylic-acid ethyl ester] | 1.1 to 10 | 
CCC(C)C(=O)Nc1sc2c(c1C(N)=O)CCOC2 (stereo not drawn) [Compound B14, 2-(2-Methyl-butyrylamino)-4 ,7-dihydro-5H-thieno[2,3-c]pyran-3-carboxylic acid amide] | > 10 | 
CC1CCc2sc(NC(=O)C3CC3)c(C(N)=O)c2C1 (stereo not drawn) [Compound D37, 2-(Cyclopropanecarbonyl-amino)-5-methyl-4,5,6,7-tetrahydro-benzo[b]thiophene-3-carboxylic acid amide] | < 0.1 | 
NC(=O)c1c(NC(=O)C2CCCC2)sc2c1CCOC2 [Compound B10, 2-(Cyclopentanecarbonyl-amino)-4,7-dihydro-5H-thieno[2,3-c]pyran-3-carboxylic acid amide] | 1.1 to 10 | 
CCN(CC)C(=O)c1cc2c(C(N)=O)c(NC(=O)C3CC3)sc2cc1O [Compound A17, 2-(Cyclopropanecarbonyl-amino)-6-hydroxy-benzo[b]thiophene-3,5-dicarboxylic acid 3-amide-5-diethylamid] | 1.1 to 10 | 
NC(=O)c1c(NC(=O)C2CC2)sc2c1CC[S+]([O-])C2 (stereo not drawn) [Compound C2, 2-(Cyclopropanecarbonyl-amino)-6-oxo-4,5,6,7-tetrahydro-6λ^4-thieno[2,3-c]thiopyran-3-carboxylic acid amide] | > 10 | 
NC(=O)c1c(NC(=O)Nc2ccc3c(c2)OCO3)sc2c1CCC(O)C2 (stereo not drawn) [Compound D212, 2-(3-Benzo[1,3]dioxol-5-yl-ureido)-6-hydroxy-4,5,6,7-tetrahydro-benzo[b]thiophene-3-carboxylic acid amide] | 0.1 to 1 | 
CC(C)C(=O)Nc1sc2c(c1C(N)=O)CCOC2 [Compound B2, 2-Isobutyrylamino-4,7-dihydro-5H-thieno[2,3-c]pyran-3-carboxylic acid amide] | > 10 | 
NC(=O)c1c(NC(=O)C2CC2)sc2c1CCOC2 [Compound B1, 2-(Cyclopropanecarbonyl-amino)4,7-dihydro-5H-thieno[2,3-c]pyran-3-carboxylic acid amide] | 0.1 to 1 | 
NC(=O)c1c(NC(=O)C2CC2)sc2c1CCC2 [Compound D196, 2-(Cyclopropanecarbonyl-amino)-5,6-dihydro-4H-cyclopenta[b]thiophene-3-carboxylic acid amide] | < 0.1 | 
CO/N=C1/CCCc2c1sc(NC(=O)C1CC1)c2C(N)=O [Compound D88, Z-2-(Cyclopropanecarbonyl-amino)-7-methoxyimino-4,5,6,7-tetrahydro-benzo[b]thiophene-3-carboxylic acid amide] | < 0.1 | 
NC(=O)c1c(NC(=O)C2CC2)sc2cc(OCC(=O)NCCO)ccc12 [Compound A8, 2-(Cyclopropanecarbonyl-amino)-6-[(2-hydroxy-ethylcarbamoyl)-methoxy]-benzo[b]thiophene-3-carboxylic acid amide] | 0.1 to 1 | 
NC(=O)c1c(NC(=O)Nc2ccc(Oc3ccccc3)cc2)sc2c1CCSC2 [Compound C49, 2-[3-(4-Phenoxy-phenyl)-ureido]-4,7-dihydro-5H-thieno[2,3-c]thiopyran-3-carboxylic acid amide] | 1.1 to 10 | 
